Measurements from patent US20240264150A1, “METHODS FOR ASSIGNING A PHENOTYPIC SIGNATURE FOR DIAGNOSTIC AND THERAPEUTIC APPLICATIONS” (DEUTSCHES ZENTRUM FÜR NEURODEGENERATIVE ERKRANKUNGEN E.V. …, priority 2020, published 2024).

What was measured:
Format in all cases: cell-based, human
[1] = test system: inflammasome activation by LPS+ATP; test: Benchmark experiment, present assay platform (HTRF cytokine release plus image-based multi-parametric readouts), LPS priming and LPS+ATP activation; conditions: for TNFa-positive cells percentage: LPS and LPS_Activator conditions, vs DMSO; for inflammasome activation / percentage of IL1beta-positive cells / IL1beta release: LPS+ATP (LPS_Activator); for IL1beta release: vs DMSO control
From the text: (§1) FIG. 24: Added-Value-1. Higher precision and accuracy of the present technology compared to Luminex cytokine assays. We tested the IL1beta- and TNFalpha release performance on the present assay platform (integrated as HTRF assays from cisbio/PerkinElmer into the inventive workflow) (B) in comparison to the Luminex cytokine assay technology (A). […] (2) Due to its higher precision and accuracy, the inventive technology allowed to disclose distinct compound (Cmpd) effects on donor-specific responses which was not achieved by the Luminex technology despite its higher nominal assay ranges as indicated by the upper and lower LoD's (tables on the left in A, B). (3) Despite higher nominal assay ranges of Luminex cytokine tests compared to present technology cytokine release LoD's (dotted lines), donor-specific response ranges were solely resolved by the inventive technology and could not be identified by the Luminex assay. (4) Despite higher nominal assay ranges of Luminex cytokine tests compared to present technology cytokine release LoD's, the inventive technology covered a larger assay window as indicated by the ovals on the TNFa-release box plot y-axes in (A) and (B).
(§2) To benchmark the inventive technology in the context of established state-of-the-art cytokine assays in the field of innate immune response analyses, a product benchmarking experiment was conducted. Towards this end, a 34-plex, off-the-shelf Luminex cytokine assay kit was tested in comparison to the present assay platform which in this embodiment integrates cytokine release data with image-based readout analyses leading to increased knowledge and added scientific value.
(§3) In the benchmarking experiment, innate immune reactions were assessed by classical cytokine release assays, i.e. the Luminex assay technology, and compared to the present platform which allows an in-depth analysis of immune responses by the combination and integration of cytokine release data and image-based multi-parametric readouts. Since the present assay platform represents a functional assay, the following conditions were analyzed, untreated, LPS-priming and priming-activation by LPS+ATP. Furthermore, the effects of selected reference compounds on the innate immune responses were tested, i.e. CRID3/MCC950 (NLRP3 inflammasome inhibitor), P22077 (ubiquitin protease inhibitor), 4SC202/Domatinostat (class 1 HDAC inhibitor), MI-2 (MALT1 inhibitor, NLRP3 inhibitor), A438079 (P2X7 receptor antagonist), VX-765 (CASP1 inhibitor) and Z-VAD-OH-FMK (pan-CASP inhibitor). The selection of the reference compounds was based on compound-specific effects on captured phenotypes obtained by the present technology (Table 3). Captured phenotypes obtained by multi-parametric and image-based readout constitute an added value provided by the present technology.

[2] = test system: inflammasome activation by LPS+ATP; test: Benchmark experiment, 34-plex Luminex cytokine assay; conditions: for IL1b release (Luminex): LPS+ATP
From the text: as §1, §2, §3

[3] = test system: PBMC; test: De-risking of cyclooxygenase (COX)-modulators (pain-killers) in the PBMC test system: image-based and supernatant cytokine readouts; conditions: for alteration of the collective phenotypic signature: 54 COX-modulators, three independent experiments, normalized to untreated control
Procedure: 54 pain-killers were tested in three independent experiments. […] The results were normalized to the untreated control group. Image-based assay read outs: a) “Active”, ratio of cells presenting mounted inflammasome, b) “TNFaPosRate”, ratio of cells showing intracellular TNFalpha expression, c) “TNFa specs/cell”, number of TNFalpha spots within TNFalpha positive cells, d) “Cells”, total number of cells. Homogenous assay read outs: e) “TNFa see”, TNFalpha concentration in the supernatant in ng/ml, f) “IL1b”, IL1beta concentration in the supernatant in ng/ml.
54 compounds were tested, which are known as cyclooxygenase (COX)-Modulators. Most of the compounds were already on market or in drug development process. A unique collective phenotypic signature of this drug class was identified. There was no alteration of assay parameters, meaning that common Cox-modulators should have no effect on the innate immune response in the test system provided by the present invention. […] Bufexamac was withdrawn from market 2010 due to allergic reaction and was further proposed in 2017 as co-treatment agent (TNFa binder) for modulators of TNFa synthesis. […] Xanthohumol, a chalcone isolated from Humulus lupus, is currently in clinical trial phase 1. Currently, there is no information about induced adverse effects.
The adverse effects of all three compounds were not identified during the safety/toxicity assessment in preclinical lead optimization or in clinical trials. Current safety testing during preclinical drug development was not able to detect the adverse modulation of innate immune response.

Row | Compound | inflammasome activation ([1]; image-based) | percentage of IL1beta-positive cells ([1]; image-based) | IL1beta release [1] | IL1b release (Luminex) [2] | alteration of the collective phenotypic signature [3] | other results
1 | Clc1cccc(-c2nnnn2Cc2cccnc2)c1Cl [A-438079] | complete block | marked increase | block | block | – | TNFa-positive cells percentage [1]: no impact
2 | CCCCOc1ccc(CC(=O)NO)cc1 [Bufexamac] | – | – | – | – | show alteration of the collective phenotypic signature | TNFa binder effect [3]: effect was proofed
3 | CC(C)(O)c1coc(S(=O)(=O)NC(=O)Nc2c3c(cc4c2CCC4)CCC3)c1 [CRID3, CRID3/MCC950] | complete block | marked increase | complete block | block | – | –
4 | COCCOc1nc(-c2ccc(Cl)c(Cl)c2)n(-c2ccc(NC(=O)CCl)cc2)n1 [MI-2] | complete block | marked increase | complete block | block | – | TNFa-positive cells percentage [1]: not affected; percentage of TNFa-multispot-positive cells ([1]; image-based): robust increase; TNFa release ([1]; present assay): partial block; TNFa release (Luminex) [2]: partial block of TNFa release with limited resolution
5 | CC(C(=O)O)c1ccc(C(=O)c2cccs2)cc1 (centres unmarked) [Subrofen] | – | – | – | – | show alteration of the collective phenotypic signature | cytokine release (II. 1b) ([3]; supernatant): strong decrease
6 | COc1cc(O)c(CC=C(C)C)c(O)c1C(=O)/C=C/c1ccc(O)cc1 [Xanthohumol] | – | – | – | – | show alteration of the collective phenotypic signature | –
7 | Z-VAD-OH-FMK | did not show any effect | low percentage | block | block | – | –
